Data as given in US7923450B2, “Modulators for amyloid beta” (Hoffmann-La Roche Inc., priority 2008, dated 2011).

Assays:
[1] = test system: γ-secretase; test: Cellular γ-secretase assay (Aβ42 secretion); assay type: cell-based; settings: inhibition of Aβ42 secretion; human neuroglioma H4 cells overexpressing human APP; 22 hrs incubation; read-out: EC50 in vitro

SMILES | EC50 [1] [nM] | melting point [°C]
COc1cc(Nc2nc3c(s2)CCCC3(C)c2ccccc2)ccc1-n1cnc(C)c1 (centres unmarked) [Example 30, [3-Methoxy-4-(4-methyl-imidazol-1-yl)-phenyl]-(4-methyl-4-phenyl-4,5,6,7-tetrahydro-benzothiazol-2-yl)-amine] | 300 | 123 to 126
COc1cc(Nc2ncc3c(n2)C(c2ccc(Cl)cc2)CCC3)ccc1-n1cnc(C)c1 (centres unmarked) [Example 50, [8-(4-Chloro-phenyl)-5,6,7,8-tetrahydro-quinazolin-2-yl]-[3-methoxy-4-(4-methyl-imidazol-1-yl)-phenyl]-amine] | 380 | 210 to 212
COc1cc(Nc2ncc3c(n2)C(C(=O)N2CCCC2)CCC3)ccc1-n1cnc(C)c1 (centres unmarked) [Example 87, {2-[3-Methoxy-4-(4-methyl-imidazol-1-yl)-phenylamino]-5,6,7,8-tetrahydro-quinazolin-8-yl}-pyrrolidin-1-yl-methanone] |  | 94 to 95
COc1cc(Nc2ncc3c(n2)C(c2ccc(Cl)cc2Cl)CCC3)ccc1-n1cnc(C)c1 (centres unmarked) [Example 48, [8-(2,4-Dichloro-phenyl)-5,6,7,8-tetrahydro-quinazolin-2-yl]-[3-methoxy-4-(4-methyl-imidazol-1-yl)-phenyl]-amine] |  | 256 to 258
COc1cc(Nc2ncc3c(n2)C(c2ccc(Cl)c(Cl)c2)CCC3)ccc1-n1cnc(C)c1 (centres unmarked) [Example 49, [8-(3,4-Dichloro-phenyl)-5,6,7,8-tetrahydro-quinazolin-2-yl]-[3-methoxy-4-(4-methyl-imidazol-1-yl)-phenyl]-amine] |  | 167 to 169

Results, then the compound that gave them:

EC50 [1] [nM] | melting point [°C] | SMILES
500 | 201 to 203 | Cc1cn(-c2ccc(Nc3ncc4c(n3)C(c3ccc(F)cc3)CCC4)cc2F)cn1 (centres unmarked) [Example 60, [3-Fluoro-4-(4-methyl-imidazol-1-yl)-phenyl]-[8-(4-fluoro-phenyl)-5,6,7,8-tetrahydro-quinazolin-2-yl]-amine]
430 | 204 to 206 | Cc1cn(-c2ccc(Nc3nc4c(s3)CCCC4c3ccccc3Cl)cc2F)cn1 (centres unmarked) [Example 33, [4-(2-Chloro-phenyl)-4,5,6,7-tetrahydro-benzothiazol-2-yl]-[3-fluoro-4-(4-methyl-imidazol-1-yl)-phenyl]-amine]
260 | 160 to 163 | Cc1cn(-c2ccc(Nc3nc4c(s3)CCCC4c3ccc(C)c(C(F)(F)F)c3)cc2F)cn1 (centres unmarked) [Example 32, [3-Fluoro-4-(4-methyl-imidazol-1-yl)-phenyl]-[4-(4-methyl-3-trifluoromethyl-phenyl)-4,5,6,7-tetrahydro-benzothiazol-2-yl]-amine]
340 | 227 to 230 | COc1ccccc1C1CCCc2sc(Nc3ccc(-n4cnc(C)c4)c(F)c3)nc21 (centres unmarked) [Example 35, [3-Fluoro-4-(4-methyl-imidazol-1-yl)-phenyl]-[4-(2-methoxy-phenyl)-4,5,6,7-tetrahydro-benzothiazol-2-yl]-amine]
460 | 136 to 139 | Cc1cn(-c2ccc(Nc3nc4c(s3)CCCC4c3ccc(Cl)cc3Cl)cc2F)cn1 (centres unmarked) [Example 36, [4-(2,4-Dichloro-phenyl)-4,5,6,7-tetrahydro-benzothiazol-2-yl]-[3-fluoro-4-(4-methyl-imidazol-1-yl)-phenyl]-amine]
